Test results taken from patent US7846434B2, “Materials and methods for improved immunoglycoproteins” (Trubion Pharmaceuticals, Inc., priority 2006, dated 2010).

Key:
Ramos cells = experiment: Ramos tumor model in nude mice; assay type: in vivo; details: TRU-016 from CHO cells treated with 200 μM DMJ, 10 μM kifenunsine or 200 μM castanospermine
Experimental: Nude mice are administered 5×10^6 Ramos cells subcutaneously on day 0 and injected intravenously with 200 μg control human IgG or TRU-016 test protein produced by CHO cells treated with 200 μM DMJ, 10 μM kifenunsine or 200 μM castanospermine on days 0, 2, 4, 6, and 8. Mice typically develop tumors within 6 days and die shortly thereafter. Tumors are measured three times weekly with digital calipers and LabCat software, and tumor volume is calculated as […]. Body weight is also determined once a week.
Mice are sacrificed when the tumor reaches 1500 mm^3 in size (1200 mm^3 on Fridays). Mice are also sacrificed if ulceration of a tumor occurs, the tumor inhibits the mobility of animal, or if weight loss equals or exceeds 20%.

Ramos B cells = experiment: CDC, Ramos B cells with human serum, propidium iodide; assay type: cell-based; details: TRU-016 from CHO cells cultured with 200 μM DMJ, 10 μM kifenunsine or 200 μM castanospermine
Experimental: To determine the CDC activity of TRU-016 purified protein produced according to Example 2, Ramos B cells were suspended in Iscoves (Gibco/Invitrogen, Grand Island, N.Y.) at 5×10^5 cells/well in 75 μl. TRU-016 (75 μl) were added to the cells at twice the concentrations indicated. Binding reactions were allowed to proceed for 45 minutes prior to centrifugation and washing in serum-free Iscoves. Cells were resuspended in Iscoves with human serum (containing complement) at various concentrations. The cells were incubated 60 minutes at 37° C. Cells were washed by centrifugation and resuspended in staining media with 0.5 μg/ml propidium iodide. Samples were incubated 15 minutes at room temperature in the dark prior to analysis by flow cytometry using a FACsCalibur and CellQuest software (Becton Dickinson).

[1] = system: CD37-expressing Daudi cancer B-cell line; experiment: ADCC, 51Cr-labeled Daudi target cells with human PBL effector cells; assay type: cell-based; details: treated with CS over a range of 100 μM-800 μM final concentration
Experimental: TRU-016 produced as described in Example 8 is incubated with the CD37-expressing Daudi cancer B-cell line in conjunction with primary human peripheral blood lymphocytes (PBL's) effector cells to assess ADCC activity.
Daudi target cells (5×10^6) are added to a 15 ml conical tube and then centrifuged at 250×g for 5 minutes at 20° C. and the supernatant removed. The cell pellet is resuspended by the addition of 0.3 mCi Chromium-51 (^51Cr, GE Healthcare, CJ51). The cells are incubated for 75 minutes at 37° C. with 5% CO2, allowing the cells to incorporate the radioactive isotope. The cells are then washed three times to remove any unincorporated ^51 Cr. This is done by adding 10 mL of complete media—IMDM (Gibco) with 10% FBS (Gibco)—to the tube, centrifuging at 250×g for 5 minutes at 20° C. followed by removal of supernatant. The final resuspension is in 11.5 mL of complete media. TRU-016 is diluted in complete media, at concentrations that are able to generate maximal to background levels of cell lysis (500 ng/mL-0.005 ng/mL). These titrations are plated out, 50 μL/well, in a round bottom 96 well plate. The ^51Cr labeled target cells are added to the dose titrations of TRU-016 at 50 μL/well and the control wells (control media without TRU-016). PBL's are isolated from fresh heparinized whole blood by density gradient centrifugation using Lymphocyte Separation Media as per protocol (LSM, MP Biomedical, 50494/36427). […] The assay is incubated for 4.5-5 hours at 37° C., 5% CO2. The effector cells lyse the target cells relative to the TRU-016 concentration, releasing a proportional amount of ^51Cr into the assay supernatant. Following the incubation the plate is centrifuged at 250×g for 3 minutes at 20° C. A 25 μL volume of cell-free supernatant is removed from all wells to a scintillation plate (Perkin Elmer 6005185) and dried overnight. The amount of ^51Cr isotope in each well of the scintillation plate is measured using a Topcount plate reader (Perkin Elmer, C9904VO). The data are expressed as percent of specific release. Specific release is calculated as: (Sample value−Spontaneous value)/(Maximum value−Spontaneous value)*100% Spontaneous=amount of ^51Cr released from target cell only Maximum release=amount of ^51Cr released from targets treated with detergent lysing agent Background Control=amount of ^51Cr released from target cells+effector cells(No TRU-016)
A dose response is generated and fit to a 4-parameter logistic curve using SoftMax Pro software (Molecular Devices, ver 5.0.1). Titrations of TRU-016 are utilized to create dose response curves of test and reference material for comparison. The EC50 values for the treated articles are compared to the untreated control (no CS) to determine the percent increase in ADCC activity.

[2] = molecular target: T1, CD37 cell surface receptor (Homo sapiens, UniProt P11049); experiment: TRU-016 binding to human PBMC B lymphocytes by two-color flow cytometry
T1 construct: Human PBMCs are isolated over LSM density gradients and incubated with unconjugated TRU-016; endogenous in cells; host or cells: human PBMCs, gated for CD19+ B lymphocytes
T1 sequence (P11049 1-281): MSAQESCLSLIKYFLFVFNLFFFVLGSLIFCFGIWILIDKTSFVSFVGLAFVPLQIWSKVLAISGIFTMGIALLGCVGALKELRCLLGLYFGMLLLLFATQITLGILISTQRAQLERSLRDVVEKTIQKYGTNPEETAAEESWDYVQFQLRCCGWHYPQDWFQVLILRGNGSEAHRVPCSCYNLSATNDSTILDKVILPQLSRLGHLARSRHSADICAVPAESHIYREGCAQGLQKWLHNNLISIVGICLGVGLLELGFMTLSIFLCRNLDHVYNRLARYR
Experimental: Experiments may be performed to confirm that the binding specificity of the parent antibody to the CD37 cell surface receptor is preserved in TRU-016. Human PBMCs are isolated over LSM density gradients and incubated with unconjugated TRU-016 and PE-conjugated anti-human CD19. Cells are washed and incubated with 1:100 FITC GAH IgG (Fc specific) for 45 minutes on ice. Cells are washed and analyzed by two-color flow cytometry on a FACsCalibur instrument using Cell Quest software. Cells are gated for B lymphocytes or non-B lymphocytes by CD19 staining.

CD16 = CD16 assays on sera of mice administered TRU-016; assay type: binding; details: sera at 48, 72, 96 and 192 hours after administration of carbohydrate-modified TRU-016

Substance: TRU-016: [G28-1 scFv VH11S (SSC-P)H WCH2 WCH3] recombinant single chain protein (SMIP) that binds to the CD37 antigen; SEQ ID NO: 2
- mean survival time (Ramos cells): increase mean survival time
- tumor volume (Ramos cells): reduce tumor volume
- CDC versus protein produced by untreated CHO cells (Ramos B cells): similar
- ADCC activity relative to untreated TRU-016 [1]: significantly increased
- TRU-016 concentration at saturation of FITC signal on B lymphocytes ([2]; CD19 positive gate): approximately 1 μg/mL
- mean fluorescence intensity (MFI) at saturation ([2]; CD19 positive gate): ~1000
- staining of the non-B lymphocyte population ([2]; non-B lymphocyte gate): detectable, but very low
- CD16 binding activity of sera containing TRU-016 (CD16): retained its increased CD16 binding activity
